Entries after “also recorded” stand apart in the source; their conditions may differ.
How the values were obtained:
[1] = system: NF-κB and JNK/MAPK pathways; assay: RNA sequencing of liver: NF-κB and JNK/MAPK pathway genes; type: in vivo, mice; conditions: ANIT+AP (200 mg/kg, i.p.) vs ANIT
Description: RNA in liver tissue was isolated from mice treated with ANIT and ANIT+AP (200 mg/kg, i.p.) and purified by TRIzol (Invitrogen, CA). The isolated RNA was quantified using Qubit 2.0 (Thermo Fisher Scientific, USA) following the manufacturer’s protocol. Libraries were prepared using the NEBNext® UltraTM RNA Library Prep Kit for Illumina® (NEB, USA) and sequenced on a Novaseq 6000 (Illumina, USA) at Novogene’s deep sequencing facility. Mapped reads from each sample were assembled using StringTie (v1.3.3b) in a reference-based approach, and featureCounts was used to quantify mapped reads. Differential expression analysis of two conditions/groups was performed using the DESeq2 R package (1.20.0).

[2] = Tissue distribution of AP and APM in rats; type: in vivo; conditions: ABX-treated rats vs Control, AP 120 mg/kg oral
Description: Control and ABX rats were orally administered a single dose of AP at 120 mg/kg. Control, ABX and germ-free C57BL/6J mice were orally administered a single dose of AP at 100 mg/kg. After 90 min of AP administration, all animals were euthanized, and blood and tissue samples were collected for subsequent analysis.
An ACQUITY^TM UPLC-MS/MS system equipped with an ACQUITY^TM UPLC BEH C18 Column (50 × 2.1 mm I.D., 1.7 μm, Waters, Milford, MA, USA) was utilized for the quantification of AP and APM as previously described.[47] Briefly, the detection samples (50 μL) were mixed with 50 μL of IS (50 ng/mL). AP and APM were extracted by 400 μL cold methanol. Supernatants were dried under nitrogen stream. Then, the residue was dissolved with 50% methanol in water, centrifuged for 30 min at 13,000 rpm, and 10 µL of the supernatant was subjected to UPLC-MS/MS analysis. The mobile phases consisted of eluent A (water) and eluent B (methanol) with a gradient elution as follows: 0–0.8 min, 10% B; 0.8–1.2 min, 10–90% B; 1.2–5.0 min, 90% B; 5.0–5.5 min, 90–10% B; 5.5–7.0 min, 10% B. The flow rate was 0.3 mL/min and the injection volume of all samples was 10 μL. The quantification of AP, APM and IS was performed by UPLC-MS/MS using an MRM method with the transitions of m/z 349.1→m/z 287.2 for AP, m/z 413.2→m/z 287.2 for APM, m/z 269→m/z 133 for IS.
AP was administered intravenously and orally to detect the production of the C-sulfonate metabolite APM. In tissue distribution experiment, rats were given AP intravenously (24 mg/kg) or orally (120 mg/kg), while mice received AP intravenously (20 mg/kg) or orally (100 mg/kg). After a 90-minute interval, the animals were sacrificed, and their liver, kidneys, small intestine, and colon were collected for analysis. In pharmacokinetic studies, rats were administered 24 mg/kg of AP intravenously or 120 mg/kg of AP by oral gavage. Blood samples were collected at predetermined time intervals (0, 5, 10, 20, 30, 40, 60, 90, 120, 180, 240, 360, and 480 min), as described, to detect the content of AP and APM by UPLC-MS/MS.

[3] = system: ANIT-induced cholestatic liver injury; assay: Anti-cholestatic effect in ANIT-induced cholestatic liver injury (plasma ALT, AST, TBA, TBIL, liver H&E); type: in vivo, mice; conditions: for anti-cholestatic effect: AP 200 mg/kg
Description: To investigate the impact of gut microbiota on the anti-cholestatic effect of AP, Control and ABX mice were divided into five groups, respectively: Vehicle, AP (200 mg/kg), ANIT (50 mg/kg), ANIT+AP (200 mg/kg), and ANIT+S-AMe (100 mg/kg).
Similarly, to investigate the impact of C-sulfonate metabolism on the anti-cholestatic effect of AP, mice were randomly divided into two groups: p.o. group (oral administration) and i.p. group (intraperitoneal injection). The p.o. group was further divided into six subgroups: Vehicle, AP (400 mg/kg), ANIT (50 mg/kg), ANIT+AP (100 mg/kg), ANIT+AP (200 mg/kg), ANIT+AP (400 mg/kg). While the i.p. group was divided into five subgroups: Vehicle, AP (200 mg/kg), ANIT (50 mg/kg), ANIT+AP (100 mg/kg), ANIT+AP (200 mg/kg).
Additionally, to investigate the effect of APS reductase inhibitor on the anti-cholestatic effect of AP, mice were randomly divided into Control and Inhibitor groups, each further divided into five subgroups: Vehicle, AP (200 mg/kg), ANIT (50 mg/kg), ANIT+AP (200 mg/kg), and ANIT+S-AMe (100 mg/kg). The mice received APS reductase inhibitor bromocriptine mesylate by oral gavage (20 mg/kg, p.o.) 2 weeks before AP treatment and continued until the end of the experiment. Furthermore, to investigate the important role of FXR in the anti-cholestatic effect of AP, WT and Fxr^-/- mice were, respectively, divided into the following groups: Vehicle, ANIT (50 mg/kg), and ANIT+AP (200 mg/kg).
In pharmacodynamic experiments, mice were administered AP at various dosages through different routes daily for a duration of 2 weeks. Additionally, S-AMe was administered at a dosage of 100 mg/kg via intraperitoneal injection (i.p.) daily for 2 weeks. A single dose of ANIT (50 mg/kg, p.o.) was administered 48 h before euthanizing the mice. At the conclusion of each experiment, the mice were euthanized, and blood samples were collected for biochemical analysis and tissue samples for histological examination and UPLC-MS/MS analysis.
Biochemical indicators of cholestatic liver injury, including alanine aminotransferase (ALT), aspartate aminotransferase (AST), total bile acid (TBA), and total bilirubin (TBIL), were assessed using assay kits obtained from Nanjing JianCheng Bioengineering Institute (Nanjing, China). The experimental procedures were conducted in accordance with the protocols provided by the manufacturer. Fresh liver tissues were fixed in 10% formalin, and prepared as 4-μm paraffin sections. These sections were stained with hematoxylin and eosin for examination of liver histopathology. The stained tissue sections were then observed and captured under an optical microscope for further analysis. Liver histological changes were quantified using a slightly modified scoring system published previously.[45] The scoring system comprised four histological features that were evaluated semi-quantitatively: necrosis and fibrosis (0–4), steatosis (0–3), lobular inflammation (0–2), and hepatocellular ballooning (0–2). The liver necrosis and fibrosis areas were quantified by area fraction analysis (Image J software, V1.8.0, National Institutes of Health, USA).[46]

C=C1CC[C@@H]2[C@](C)(CO)[C@H](O)CC[C@@]2(C)[C@@H]1C/C=C1/C(=O)OC[C@H]1O [AP, Andrographolide]
clustering of NF-κB pathway genes and JNK/MAPK pathway genes [1]: no significant differences
levels of AP in plasma and tissues [2]: elevated levels
effect on ANIT-induced elevation of plasma biochemical indicators, liver cell necrosis, inflammatory cell infiltration ([3]; ABX mice (intestinal flora depleted), AP 200 mg/kg p.o., 2 weeks): markedly ameliorated
protective effect against ANIT-induced liver injury ([3]; Control mice with intact intestinal flora, AP 200 mg/kg p.o., 2 weeks): weak protective effect
anti-cholestatic effect ([3]; Fxr^-/- mice): completely abolished; also recorded: no protective effect
anti-cholestatic effect ([3]; WT mice): superior anti-cholestatic effect; also recorded: significant effects
alleviation of ANIT-induced cholestatic liver injury ([3]; mice, AP 200 mg/kg p.o. alone (inhibitor study)): did not exhibit significant alleviation
alleviation of ANIT-induced cholestatic liver injury ([3]; mice, AP 200 mg/kg p.o. in combination with APS reductase inhibitor bromocriptine mesylate 20 mg/kg p.o.): notable amelioration of liver injury
anti-cholestatic effect vs ANIT group ([3]; mice, intraperitoneal AP 100 mg/kg or 200 mg/kg): superior anti-cholestatic effect
hepatoprotective effect vs ANIT group ([3]; mice, oral AP 400 mg/kg): significant efficacy
